Results reported in article PMC5558686 (British Journal of Cancer, 2017).
Counter-ions that a name gives are not always drawn.

Assays:
UACC 903 cells [1] = experiment: Cholesterol localisation assay; type: cell-based; conditions: after 6 h
UACC 903 cells [2] = experiment: Co-treatment with necrosis inhibitors IM-54 / Necrostatin-5, viability; type: cell-based; conditions: IM-54 and Necrostatin-5
prostate cancer = conditions: phase-2; ref Clinical Trial Id: NCT00417274; cited from earlier work
[3] = H&E histology of major organs; type: in vivo, mice; conditions: oral treatment
[4] = Body weight of treated mice; type: in vivo; conditions: for loss of body weight: xenograft mice, 2 days after oral drug treatments
UACC 903 cells [5] = experiment: Western blot of autophagic flux markers LC3B and p62/SQSTM1; type: cell-based
[6] = CNS related sedation, video surveillance; type: in vivo, Swiss Webster mice; conditions: for onset of sedation after oral administration / persistence of sedation: xenograft mice, oral
Serum toxicity markers = type: in vivo, mice; conditions: serum at end of oral treatment
UACC 903 cells [7] = experiment: Co-treatment with apoptosome inhibitor NS3694, viability; type: cell-based; conditions: 50 μMol/l NS-3694 co-treatment
[8] = test system: BAX-knockout HCT116 cells; experiment: Viability of BAX-knockout HCT116 cells; type: cell-based, human; conditions: 24 h, increasing concentrations
UACC 903 cells [9] = experiment: Mitochondrial membrane potential; type: cell-based
[10] = test system: UACC 903, 1205 Lu and A2058 tumour development; experiment: Xenografted melanoma tumour growth; type: in vivo, athymic-Foxn1−/− (nude) mice; conditions: for tumour weights lower than control groups: end of treatment, Figure 2E and H (UACC 903 and A2058); for decrease in tumour development: oral, perphenazine 50 mg kg^−1 or fluphenazine 25 mg kg^−1 at 4-day intervals
[11] = test system: UACC 903 xenografted tumours; experiment: Xenografted melanoma tumour growth; type: in vivo, athymic-Foxn1−/− (nude) mice; conditions: for reduction of tumour growth / tumour inhibition: oral administration, UACC 903 xenograft, day 22
UACC 903 cells [12] = experiment: Caspase-dependence, z-VAD-fmk pre-treatment, viability; type: cell-based; conditions: z-VAD-fmk 20 μmol l^−1, 1 h pre-treatment; TRAIL 50 ng ml^−1

CC(C)c1ccc2c(c1)CC[C@H]1[C@](C)(CN)CCC[C@]21C [Leelamine]
intracellular cholesterol accumulation (Filipin-III staining) (UACC 903 cells [1]): intracellular cholesterol accumulation
protection from cell death by necrosis inhibitors (UACC 903 cells [2]): neither of the two necrosis inhibitors, IM-54 and Necrostatin-5, protected

CCN(CC)CCCC(C)Nc1c2ccc(Cl)cc2nc2ccc(OC)cc12 (stereo not shown) [quinacrine, Mepacrine (Quinacrine) DiHCL]
patients with stabilisation or decrease in the rate of disease progression (prostate cancer): ~50 % of the patients

OCCN1CCN(CCCN2c3ccccc3Sc3ccc(Cl)cc32)CC1 [Perphenazine]
histological analysis of vital organs [3]: no alteration in cell morphology or tissue architecture
body weight loss ([4]; Swiss Webster mice, following treatment): 10%
loss of body weight [4]: 10%
LC3B and p62 protein levels (western blot) (UACC 903 cells [5]): dose-dependent accumulation of LC3B and p62 proteins
% of time mice awake in 24 h period ([6]; 15 mg kg^−1 oral): slightly greater sedative effect compared to liposomal treatment
% of time mice awake in 24 h period ([6]; 50 mg kg^−1 oral): 6%
onset of sedation after oral administration [6]: Thirty to sixty minutes
persistence of sedation [6]: > 24 h
total bilirubin levels compared to controls (Serum toxicity markers): significantly higher
protection from cell death by NS-3694 (UACC 903 cells [7]): partially protected
sensitivity of BAX-knockout compared with wild-type HCT116 cells [8]: more resistant
ΔΨmt − (cells that lost MMP) (UACC 903 cells [9]; 6 h 10 μM): 19%
ΔΨmt − (cells that lost MMP) (UACC 903 cells [9]; 6 h 15 μM): 28%
tumour weights lower than control groups [10]: 40–60%
decrease in tumour development [10]: 40–60%
inhibition of UACC 903 tumour development by the free drug ([11]; 12.5 or 25 mg kg^−1, orally every other day): ineffective
reduction of tumour growth / tumour inhibition [11]: 60%
mitotic figures in H&E stained tumour sections ([11]; tumours from treated animals): significant decrease in mitotic figure numbers

OCCN1CCN(CCC=C2c3ccccc3Sc3ccc(C(F)(F)F)cc32)CC1 [Flupentixol, Flupenthixol diHCL]
protection from cell death by NS-3694 (UACC 903 cells [7]): partially protected

CNCCC=C1c2ccccc2CCc2ccccc21 [Nortriptyline, Nortriptyline HCL]
LC3B and p62 protein levels (western blot) (UACC 903 cells [5]): dose-dependent accumulation of LC3B and p62 proteins
reduction of tumour growth / tumour inhibition [11]: 50%

OCCN1CCN(CCCN2c3ccccc3Sc3ccc(C(F)(F)F)cc32)CC1 [Fluphenazine]
loss of body weight [4]: 10%
LC3B and p62 protein levels (western blot) (UACC 903 cells [5]): dose-dependent accumulation of LC3B and p62 proteins
onset of sedation after oral administration [6]: Thirty to sixty minutes
persistence of sedation [6]: > 24 h
protection from cell death by NS-3694 (UACC 903 cells [7]): partially protected
tumour weights lower than control groups [10]: 40–60%
decrease in tumour development [10]: 40–60%

CNCCCN1c2ccccc2CCc2ccccc21 [Desipramine, Desipramine HCL]
reduction of tumour growth / tumour inhibition [11]: 30%

CCN(CC)CCO[C@H]1CC[C@@]2(C)C(=CC[C@@H]3[C@@H]2CC[C@]2(C)C(=O)CC[C@@H]32)C1.Cl [U18666A, U-18666A]
intracellular cholesterol accumulation (Filipin-III staining) (UACC 903 cells [1]): intracellular cholesterol accumulation

B1: TRAIL: positive control for caspase-dependent cell death (50 ng ml^−1) (protein, UniProt P50591 1-281, looked up)
Tumor necrosis factor ligand …: MAMMEVQGGPSLGQTCVLIVIFTVLLQSLCVAVTYVYFTNELKQMQDKYSKSGIACFLKEDDSYWDPNDEESMNSPCWQVKWQLRQLVRKMILRTSEETISTVQEKQQNISPLVRERGPQRVAAHITGTRGRSNTLSSPNSKNEKALGRKINSWESSRSGHSFLSNLHLRNGELVIHEKGFYYIYSQTYFRFQEEIKENTKNDKQMVQYIYKYTSYPDPILLMKSARNSCWSKDAEYGLYSIYQGGIFELKENDRIFVSVTNEHLIDMDHEASFFGAFLVG
effect of pan-caspase inhibitor z-VAD-fmk on cell death (UACC 903 cells [12]): protected cells from apoptosis
